Reference: article PMC5597121, “The human bitter taste receptor T2R38 is broadly tuned for bacterial compounds” (PLoS ONE, 2017)
Residue numbers refer to the chain shown, from its start. Several values for one entry are separate records, joined by “and”; a condition that tells them apart may be missing. Identical values can stand only once. Entries after “also recorded” stand apart in the source; their conditions may differ.

What was measured:
[1] = tested on: mock transfected cells (empty vector); assay: Single cell calcium imaging, control: mock transfected (empty vector) Peakrapid cells; format: cell-based, human
Description: (§1) The Peakrapid cell line expressing stably a chimeric Gα16gustducin44 G protein [21] was used. 40 000 cells were seeded in each well of a black/clear poly-D-lysine cellware pre-coated 96-well plate (Biocoat®, Becton-Dickinson, Erembodegem, Belgium) and transiently transfected with 50 ng of plasmid DNA containing the receptor sequence or not (empty vector) and with 50 ng of chaperone protein RTP4 per well. Forty hours after transfection, cells were incubated with the calcium-sensitive dye Fluo4 (Life Technologies, Oregon, USA) solubilized at 10 μg/ml in a buffer containing EMEM (150 mM NaCl, 5 mM KCl, 2 mM CaCl2, 1.2 mM MgCl2, 10 mM glucose), 10 mM HEPES, 0.01% (v/v) Pluronic F127, 0.1% (w/v) bovine serum albumin. After 1 h incubation at 37°C, cells were rinsed twice with the same buffer without Fluo4 and left in 50 μl buffer (prior ligand injection). Measurement were performed on a platform based on a motorized Axiobserver Z1 fluorescence microscope piloted by a Axiovision software (Zeiss, Jena, Germany) as described previously. For each selected well, images were taken 1 per second, during 30 seconds. 50 μl of the buffer containing the ligand twice concentrated was injected on the 2nd second of the time lapse record.
(§2) After time lapse record, the number of responding cells in each injected well was determined using ImageJ 1.34 (Rasband, W.S., ImageJ, National Institutes of Health, Bethesda, Maryland, USA, http://rsb.info.nih.gov/ij/1997-2004), and expressed as the percentage of the surface of a microscope field covered by activated cells with respect to the total surface of the field covered by confluent cells. Automated determination of the surface occupied by responding cells is easier to perform than a cell counting. The resulting percentage of positive surface provided a convenient estimation of the percentage of responding cells, as observed by comparing the percentage of positive surface and percentage of responsive cells determined by direct counting, in the same experiment. In agreement with the literature, the percentage of responding cells was proportional to the agonist concentration. During experiment in each plate, at least 2 wells were tested with phenylthiocarbamide (PTC) at 0.1 mM, which is one of the best characterized agonist of T2R38 in the literature. The activation of T2R38 by PTC allows normalization of the result of other tested molecules. The results were thus expressed as the percentage of PTC activation. In scaling calcium imaging assays using this latter receptor, concentration-responses curves were performed and data were fitted to a four parameter logistic equation: y=min+ (max− min)/1+10 ^(logEC50−x)nH . Min and max are the minimum and the maximum values of the percentage of cell-activated surface respectively, y is the percentage of cell-activated surface at the x concentration and nH is the Hill coefficient.

T2R38 = target: T1, T2R38 (Homo sapiens, UniProt P59533, A49P/I296V); assay: Single cell calcium imaging, Peakrapid cells (Gα16gustducin44) transiently transfected with T2R38; format: cell-based; settings: for Emax (% of positive control): percentage of the response elicited by 0.1 mM PTC; for response of T2R38 PAV transfected cells (S7_fig raw data): individual values of experiments 1-5; for EC50: concentration-response curve, read-out: EC50; for logEC50: given in the concentration-response curve
T1 construct: leader: first 45 amino acids of rat somatostatin receptor subtype 3 (SSTR3) (N); expressed in transfected cells; host or cells: Peakrapid cells (HEK293 derivative, ATCC CRL-2828) stably expressing Galpha16gustducin44, co-transfected with human RTP4
T1 sequence (P59533 1-333 A49P/I296V): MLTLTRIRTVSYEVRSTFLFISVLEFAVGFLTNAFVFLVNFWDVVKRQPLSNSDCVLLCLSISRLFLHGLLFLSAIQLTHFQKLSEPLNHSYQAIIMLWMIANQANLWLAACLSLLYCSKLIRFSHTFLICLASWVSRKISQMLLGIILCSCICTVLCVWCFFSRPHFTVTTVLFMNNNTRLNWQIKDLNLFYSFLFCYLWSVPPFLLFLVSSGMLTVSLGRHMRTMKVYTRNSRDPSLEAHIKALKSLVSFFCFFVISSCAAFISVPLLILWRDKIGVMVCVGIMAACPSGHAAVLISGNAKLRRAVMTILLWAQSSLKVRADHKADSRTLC
Source text: (§3) The coding sequences of either the functional (PAV, GenBank accession number AY258597.1) and non-functional (AVI, GenBank accession number AF494231.1) were amplified from human genomic DNA by polymerase chain reaction.
These coding sequences were cloned in a pEFIB backbone vector in translational fusion with the coding sequence of a leader sequence corresponding to the 45 first amino acids of the rat somatostatin receptor subtype 3 [20]. The constructs were verified by sequencing. The coding sequence of RTP4 (Genbank accession number AY562238.1) was amplified from human spleen cDNA and cloned a pCI backbone vector.
The Gα16gustducin44 sequence was generated by swapping the last 132 nucleotides of the G α16 with the corresponding terminal sequence of the Gα-gustducin [21] and was cloned in a pIRES-Puro plasmid. This vector was transfected in the Peakrapid cell line (ATCC reference: CRL-2828™; purchased from LGC Standards SARL, Molsheim, FRANCE), HEK293 cell line derivative, cultured in EMEM culture medium (reference BE12-136F; Lonza, Vervier, BELGIUM) supplemented with 10% of foetal bovine serum (Sigma-Aldrich, Bornem, Belgium) and 1 μg/ml of Puromycin to allow the selection of recombinant cell populations. Cell clones expressing the Gα16gustducin44 were selected and the clone presenting the best functional response of T2R38 to phenylthicarbamide was used for the study (see below).
as §1
as §2, with “In scaling calcium imaging assays using this latter receptor, concentration-responses curves were performed and data were fitted to a four parameter logistic equation: y=min+ (max− min)/1+10 ^(logEC50−x)nH . Min and max are the minimum and the maximum values of the percentage of cell-activated surface respectively, y is the percentage of cell-activated surface at the x concentration and nH is the Hill coefficient.” left out

T2R38 AVI = target: T2, T2R38 AVI (Homo sapiens, UniProt P59533, A262V); assay: Single cell calcium imaging, control: cells transfected with nonfunctional allele (AVI) of T2R38; format: cell-based; settings: for response of T2R38 AVI transfected cells (S7_fig raw data): individual values of experiments 1-5
T2 construct: leader: first 45 amino acids of rat somatostatin receptor subtype 3 (SSTR3) (N); expressed in transfected cells; host or cells: Peakrapid cells (HEK293 derivative, ATCC CRL-2828) stably expressing Galpha16gustducin44, co-transfected with human RTP4
T2 sequence (P59533 1-333 A262V): T1 sequence (P59533 1-333 A49P/I296V) with P49A, A262V, V296I
Description: as §3, §1, §2

[2] = 2 butanone 0.0003, log10[ ] -3.52288
[3] = 2 butanone 0.005, log10[ ] -2.30
[4] = 2 méthyl propanal 0.000398107, log10[ ] -3.4
[5] = 2 méthyl propanal 0.00251189, log10[ ] -2.6
[6] = 2 méthyl propanal 0.0158489, log10[ ] -1.8

In the case of C[S+](C)[O-] [DMSO, dimethylsulfoxide], the “percentage of surface covered by activated cells” value (“percentage of surface covered” for short) ([1]; DMSO 0.0208957 M) is reported as 0.0457% and 0.0545% and 0.10%, the “percentage of surface covered” value ([1]; DMSO 0.0505834 M) is reported as 0.62% and 0.46% and 0.98% and the “percentage of surface covered” value ([1]; DMSO 0.0660305 M) is reported as 1.05% and 0.28% and 0.79%. For the same compound, the “percentage of surface covered” value ([1]; DMSO 0.113804 M) was 0.19% and 0.57% and 0.37%, the “percentage of surface covered” value ([1]; DMSO 0.15%) was 0.20% and 0.05% and the “percentage of surface covered” value ([1]; DMSO 0.161577 M) was 0.48% and 0.22% and 0.50%. The “percentage of surface covered” value ([1]; DMSO 0.208656 M) was 1.44% and 1.21% and 1.20%, the “percentage of surface covered” value ([1]; DMSO 0.283773 M) was 0.60% and 5.54% and 2.61% and the “percentage of surface covered” value ([1]; DMSO 0.3%) was 0.01%. The “percentage of surface covered” value ([1]; DMSO 0.388101 M) was 0.89% and 2.18% and 2.66%, the “percentage of surface covered” value ([1]; DMSO 0.417313 M) was 2.52% and 1.37% and 1.55% and the “percentage of surface covered” value ([1]; DMSO 1.5%) was 1.51% and 0.51% and 0.83% and 0.76% and 0.97% and 0.34%. The “agonist activity on T2R38 (in words)” value (T2R38) was “activated T2R38”, the “percentage of surface covered” value (T2R38; DMSO 0.0208957 M) was 0.32% and 1.00% and 0.12% and 3.02% and 1.04% and 0.84% and the “percentage of surface covered” value (T2R38; DMSO 0.0505834 M) was 0.62% and 1.17% and 1.07% and 2.06% and 2.44%. For the same compound, the “percentage of surface covered” value (T2R38; DMSO 0.0660305 M) was 0.58% and 2.76% and 4.06% and 1.23% and 6.36% and 2.08%, the “percentage of surface covered” value (T2R38; DMSO 0.15%) was 0.58% and 0.91% and 0.69% and 1.00% and the “percentage of surface covered” value (T2R38; DMSO 0.3%) was 0.69% and 0.46%. For the same compound, the “percentage of surface covered” value (T2R38; DMSO 1.5%) was 4.39% and 7.39% and 7.25% and 2.49% and 4.85% and 7.28%, the T2R38-dependent calcium response (T2R38; DMSO 1.5% (209 mM) alone) was “induced a T2R38-dependent calcium response of the same intensity; also recorded: activates specifically T2R38” and the “Emax (% of positive control)” value (T2R38) was 88 % of positive control. For the same compound, the “effect on the non-functional haplotype of T2R38 (AVI)” value (T2R38 AVI) was “absence of effect”.
With CCC(C)=O [2-butanone] the “percentage of surface covered” value [1, 2] was 0.39% and 0.10% and 0.28% and 0.31% and 0.23% and 0.40%, the “percentage of surface covered” value ([1]; 2 butanone 0.001, log10[ ] -3) was 0.15% and 0.21% and 0.35% and 0.12% and 1.02% and 0.24% and the “percentage of surface covered” value [1, 3] was 0.20% and 0.26% and 0.34% and 0.21% and 0.24% and 0.71%. For the same compound, the “percentage of surface covered” value ([1]; 2 butanone 0.015, log10[ ] -1.82) was 0.00% and 0.0352% and 0.31% and 0.18% and 0.33% and 0.26%, the “percentage of surface covered” value ([1]; 2 butanone 0.03, log10[ ] -1.52) was 0.0659% and 0.02% and 0.27% and 0.40% and 0.08% and 0.25% and the “percentage of surface covered” value ([1]; 2 butanone 0.08, log10[ ] -1.09691) was 0.25% and 0.75% and 3.48% and 1.23% and 0.22% and 1.04%. The “agonist activity on T2R38 (in words)” value (T2R38) was “able to specifically trigger this receptor”, the “percentage of surface covered” value (T2R38; [2]) was 0.29% and 0.34% and 0.44% and 0.21% and 0.00% and 0.15% and the “percentage of surface covered” value (T2R38; 2 butanone 0.001, log10[ ] -3) was 0.13% and 1.98% and 3.16% and 3.22% and 0.15% and 0.22%. For the same compound, the “percentage of surface covered” value (T2R38; [3]) was 0.54% and 0.83% and 7.88% and 6.11% and 2.08% and 3.12%, the “response of T2R38 PAV transfected cells (S7_fig raw data)” value (T2R38) was 17% and 13% and 2.7% and 11% and 15% and 12% and 7% and 6% and the EC50 (T2R38) was 11 mM. For the same compound, the logEC50 (T2R38) was -1.94, the “Emax (% of positive control)” value (T2R38) was 48 % of positive control and the “response of T2R38 AVI transfected cells (S7_fig raw data)” value (T2R38 AVI) was 0.268% and 0.426% and 0.699% and 0.605% and 0.163% and 0.0184% and 0.394% and 1%.
With CC(C)C=O [2-methylpropanal] the “percentage of surface covered” value [1, 4] was 0.75% and 0.87% and 0.24% and 0.23% and 0.25% and 0.37% and 0.61%, the “percentage of surface covered” value [1, 5] was 0.28% and 0.65% and 0.25% and 0.23% and 1.49% and 1.18% and 0.31% and 0.37% and the “percentage of surface covered” value ([1]; 2 méthyl propanal 0.00398107, log10[ ] -2.4) was 0.33% and 0.26% and 0.12% and 0.41% and 0.13% and 0.42% and 0.48% and 0.87%. The “percentage of surface covered” value ([1]; 2 méthyl propanal 0.00630957, log10[ ] -2.2) was 0.35% and 0.63% and 0.24% and 0.06% and 0.59% and 0.25% and 0.34% and 0.85%, the “percentage of surface covered” value ([1]; 2 méthyl propanal 0.01, log10[ ] -2) was 0.73% and 0.27% and 0.89% and 1.38% and 0.42% and 1.05% and 1.19% and 0.79% and the “percentage of surface covered” value [1, 6] was 1.86% and 0.33% and 2.42% and 3.28% and 1.11% and 1.32% and 3.65% and 5.14%. For the same compound, the “agonist activity on T2R38 (in words)” value (T2R38) was “able to specifically trigger this receptor”, the “percentage of surface covered” value (T2R38; [4]) was 0.29% and 0.95% and 0.86% and 0.39% and 1.39% and 0.60% and 1.13% and 1.16% and the “percentage of surface covered” value (T2R38; [5]) was 1.62% and 0.54% and 2.22% and 1.87% and 1.50% and 1.18% and 5.46% and 4.93%. The “percentage of surface covered” value (T2R38; [6]) was 36.19% and 28.82% and 26.57% and 24.12% and 23.76% and 32.56% and 40.19% and 33.93%, the “response of T2R38 PAV transfected cells (S7_fig raw data)” value (T2R38; listed as 2 méthyl propanal) was 27% and 16% and 28% and 14% (2×) and 8.51% and the EC50 (T2R38) was 11 mM. For the same compound, the logEC50 (T2R38) was -1.97, the “Emax (% of positive control)” value (T2R38) was 163 % of positive control and the “response of T2R38 AVI transfected cells (S7_fig raw data)” value (T2R38 AVI; listed as 2 méthyl propanal) was 1% (2×) and 2% and 1.41% and 0.831% and 1.15%.
